In patent US12234256B2, “Molecular degraders of extracellular proteins” (priority 2021, dated 2025):

What was measured:
α-DNP antibody [1] = assay: In vivo serum levels of α-DNP antibody, ELISA; settings: FIG. 8D; single variable dose; mice
Procedure: In vivo experiments were performed under Yale University IACUC supervision following protocol entitled “pre-clinical evaluation of small molecule immunomodulators” (Protocol number 2017-11445). Experiments were performed in male nude mice purchased from Jackson Laboratory (NU/J, Stock No. 002019). Compounds were administered i.p. in a volume of 100 μL PBS. Approximately 25 μL of blood was collected at each time point by saphenous bleed. Antibody was administered as 40 μg in 100 μL i.p. Compounds were administered daily at the specified dose throughout the course of experiments. For data analysis, antibody levels were normalized to the recorded concentration of antibody observed in each mouse 24 hours after the i.p. administration.
ELISA analysis of serum samples was performed using MaxiSorp 96 well plates (Thermo, 44-2404-21). Plates were coated with 50 μL of BSA-DNP (Invitrogen, A23018) at 100 ug/mL in PBS and incubated at 4° C. overnight. Coating solution was then removed, and the plates were blocked with 2% BSA in PBS for 2 hours at room temperature, followed by washing twice with PBST (0.2% Tween). Serum samples were diluted in 2% BSA in PBS. […] The plates were then treated with TMB (Thermo 34028) followed by 2 M H2SO4 and analyzed for OD at 450 nm on a plate reader (BioTek Synergy 2). Sample concentrations were determined against a standard curve.

α-DNP antibody [2] = assay: Ternary complex formation between hepatocytes and α-DNP antibody; type: cell-based; settings: FIG. 6B; competitive binders of ASGPR or α-DNP antibody

CC(=O)N[C@H]1[C@H](OCCOCCOCCNC(=O)CCOCC(COCCC(=O)NCCOCCOCCO[C@@H]2O[C@H](CO)[C@H](O)[C@H](O)[C@H]2NC(C)=O)(COCCC(=O)NCCOCCOCCO[C@@H]2O[C@H](CO)[C@H](O)[C@H](O)[C@H]2NC(C)=O)NC(=O)CNC(=O)COCCOCCOCCNc2ccc([N+](=O)[O-])cc2[N+](=O)[O-])O[C@H](CO)[C@H](O)[C@@H]1O [D-MoDE-A]
serum levels of α-DNP antibody (α-DNP antibody [1]): decrease in serum levels of α-DNP antibody | D-MoDE-A-mediated ternary complex formation in presence of competitive binders (α-DNP antibody [2]): inhibited by competitive binders of either ASGPR or α-DNP antibody
